Tests used:
Type in all cases: cell-based
TYK2 [1] = biological target: T1, TYK2 (Homo sapiens, UniProt P29597, E957D); assay: TYK2 kinase activity inhibition assay (Ba/F3-FL-TYK2-E957D cell proliferation, CellTiter-Glo); details: 72 h
T1 construct: host or cells: Ba/F3 (murine B lymphocytes)
Description: The TYK2 kinase gene was introduced into wild-type murine-derived B lymphocytes (BaF3) to construct the Ba/F3-FL-TYK2-E957D stable cell line.
In this experiment, the inhibitory effect of the compounds on the proliferation of Ba/F3-FL-TYK2-E957D cells were tested, apoptosis was detected, and the IC50 value was calculated. The inhibitory activity of the compounds against TYK2 kinase was evaluated based on the IC50 value.
(§1) The tested compounds, powder and stored at room temperature, were prepared into 10 mM stock solution with DMSO and stored at −20° C. away from light for use.
Compounds were prepared into dilute solutions which was 1000 times of the final concentration. The compound was prepared into 20-times of the final concentration by diluting the compound with culture medium. 2 ul of 1000-times compound was added to per well to 98 ul of culture medium.
(§2) Cells (provided by Sundia Pharmaceutical Technology (Shanghai) Co., Ltd.) were resuspended and counted using an automated cell counter. The cell suspension was diluted to the desired density based on BaF3 seeding density of 2000 cells per well. Each well was plated with 95 ul of cells and incubated at 37° C. for stable equilibrium. 5 ul of 20-times compound was added to each well, with the wells to which the same volume of DMSO was added as a control.
The cell plate was equilibrated to room temperature. 40 ul CellTiter-Glo® Reagent was added to each well, shaken for 2 minutes and allowed to stand for 10 minutes. Detected with SpectraMax Paradigm.
• (1) IC50 was calculated using GraphPad Prism 5. • (2) % Inh=(Max signal−Compound signal)/(Max signal−Min signal)×100. • (3) Max signal was the positive control well with only the same volume of DMSO as the compound. • (4) Min signal was the negative control well with only the culture medium.

TYK2 [2] = biological target: T1, TYK2; assay: JAK family kinase selectivity assay, Ba/F3-FL-TYK2-E957D cell proliferation; details: 72 h
From the text: (§3) There are four kinases in the JAK family, respectively TYK2, JAK1, JAK2 and JAK3. JAK family kinase genes were introduced into the wild-type murine B lymphocytes (BaF3), and four BaF3 engineered cell lines were constructed respectively (Ba/F3-FL-TYK2-E957D, Ba/F3-TEL-JAK1, Ba/F3-TEL-JAK2, Ba/F3-TEL-JAK3). The growth and proliferation of these engineered cell lines were not dependent on IL-3, but on exogenously transferred JAK family kinases.
(§4) In this experiment, the inhibitory effects of the compounds on the proliferation of four cell types, Ba/F3-FL-TYK2-E957D, Ba/F3-TEL-JAK1, Ba/F3-TEL-JAK2, and Ba/F3-TEL-JAK3 were tested, and apoptosis was detected, and the IC50 values were calculated. The inhibitory activities of the compounds against TYK2, JAK1, JAK2, and JAK3 kinases were evaluated based on the IC50 value, thus assessing the JAK family kinase selectivity of the compounds. […]
(§5) Cells (provided by Sundia Pharmaceutical Technology (Shanghai) Co., Ltd.) were resuspended and counted using an automated cell counter. […]
(§6) The cell plate was equilibrated to room temperature. […] Detected with SpectraMax Paradigm.
(§7) • (1) IC50 was calculated using GraphPad Prism 5. • (2) % Inh=(Max signal-Compound signal)/(Max signal-Min signal)×100. • (3) Max signal was the positive control well with only the same volume of DMSO as the compound. • (4) Min signal was the negative control well with only the culture medium.

JAK1 = biological target: T2, JAK1 (Homo sapiens, UniProt P23458, cells depend on it, form not given); assay: JAK family kinase selectivity assay, Ba/F3-TEL-JAK1 cell proliferation; details: Ba/F3-TEL-JAK1, 72 h; read-out: Ba/F3 Cell IC50 JAK1
T2 construct: fused on or other part: N-terminal part of TEL (ETV6) as oligomerising partner; P41212 (Transcription factor ETV6)
From the text: as §3, §4, §5, §6, §7

JAK2 = biological target: T3, JAK2 (Homo sapiens, UniProt O60674, cells depend on it, form not given); assay: JAK family kinase selectivity assay, Ba/F3-TEL-JAK2 cell proliferation; details: Ba/F3-TEL-JAK2, 72 h; read-out: Ba/F3 Cell IC50 JAK2
T3 construct: fused on or other part: N-terminal part of TEL (ETV6) as oligomerising partner; it is the second protein of the fusion and part of the key; P41212 (Transcription factor ETV6)
From the text: as §3
(§8) In this experiment, the inhibitory effects of the compounds on the proliferation of four cell types, Ba/F3-FL-TYK2-E957D, Ba/F3-TEL-JAK1, Ba/F3-TEL-JAK2, and Ba/F3-TEL-JAK3 were tested, and apoptosis was detected, and the IC50 values were calculated. The inhibitory activities of the compounds against TYK2, JAK1, JAK2, and JAK3 kinases were evaluated based on the IC50 value, thus assessing the JAK family kinase selectivity of the compounds.
as §1
(§9) Compounds were formulated into dilute solutions which was 1000 times of the final concentration. The compound was prepared into 20-times of final concentration by diluting the compound with culture medium. 2 ul of 1000-times compound was added per well to 98 ul of culture medium.
as §2, with “5 ul of 20-times compound was added to each well, with the wells to which the same volume of DMSO was added as a control.” left out
as §6, §7

JAK3 = biological target: T4, JAK3 (Homo sapiens, UniProt P52333, cells depend on it, form not given); assay: JAK family kinase selectivity assay, Ba/F3-TEL-JAK3 cell proliferation; details: Ba/F3-TEL-JAK3, 72 h; read-out: Ba/F3 Cell IC50 JAK3
T4 construct: fused on or other part: N-terminal part of TEL (ETV6) as oligomerising partner; P41212 (Transcription factor ETV6)
From the text: as §3, §8, §1, §9
as §2, with “5 ul of 20-times compound was added to each well, with the wells to which the same volume of DMSO was added as a control.” left out
as §6, §7

T1 sequence (P29597 whole entry E957D): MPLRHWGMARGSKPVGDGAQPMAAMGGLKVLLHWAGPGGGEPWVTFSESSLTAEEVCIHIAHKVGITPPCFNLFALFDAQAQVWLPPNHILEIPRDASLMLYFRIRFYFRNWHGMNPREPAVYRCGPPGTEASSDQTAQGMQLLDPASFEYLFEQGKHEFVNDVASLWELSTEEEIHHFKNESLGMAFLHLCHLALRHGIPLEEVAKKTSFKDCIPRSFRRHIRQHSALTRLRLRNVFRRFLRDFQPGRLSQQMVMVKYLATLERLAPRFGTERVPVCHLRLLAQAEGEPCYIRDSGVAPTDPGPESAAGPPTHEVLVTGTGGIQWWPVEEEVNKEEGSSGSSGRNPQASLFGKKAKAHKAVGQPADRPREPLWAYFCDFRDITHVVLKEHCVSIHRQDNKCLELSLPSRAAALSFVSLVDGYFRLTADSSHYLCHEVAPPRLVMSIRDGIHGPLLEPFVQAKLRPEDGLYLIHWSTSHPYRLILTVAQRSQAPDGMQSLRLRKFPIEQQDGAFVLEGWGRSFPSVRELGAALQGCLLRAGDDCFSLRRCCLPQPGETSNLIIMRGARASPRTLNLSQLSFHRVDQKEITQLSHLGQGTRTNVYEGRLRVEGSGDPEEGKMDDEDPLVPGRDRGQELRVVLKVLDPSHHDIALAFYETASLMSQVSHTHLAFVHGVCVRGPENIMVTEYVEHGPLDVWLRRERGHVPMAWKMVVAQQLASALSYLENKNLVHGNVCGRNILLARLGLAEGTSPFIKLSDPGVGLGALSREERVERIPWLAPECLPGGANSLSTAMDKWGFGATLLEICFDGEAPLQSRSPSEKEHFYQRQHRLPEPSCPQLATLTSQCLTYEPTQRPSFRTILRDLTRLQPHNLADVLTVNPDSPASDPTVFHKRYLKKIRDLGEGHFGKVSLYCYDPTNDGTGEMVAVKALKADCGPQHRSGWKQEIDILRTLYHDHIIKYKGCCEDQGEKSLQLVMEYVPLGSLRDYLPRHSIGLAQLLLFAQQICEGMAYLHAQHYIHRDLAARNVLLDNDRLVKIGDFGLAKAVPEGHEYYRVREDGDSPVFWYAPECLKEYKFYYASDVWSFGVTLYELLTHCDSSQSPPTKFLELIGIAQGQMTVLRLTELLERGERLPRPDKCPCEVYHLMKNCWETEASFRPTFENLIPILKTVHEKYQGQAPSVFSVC
T4 sequence (P52333 822-1111 limits assumed, change not shown): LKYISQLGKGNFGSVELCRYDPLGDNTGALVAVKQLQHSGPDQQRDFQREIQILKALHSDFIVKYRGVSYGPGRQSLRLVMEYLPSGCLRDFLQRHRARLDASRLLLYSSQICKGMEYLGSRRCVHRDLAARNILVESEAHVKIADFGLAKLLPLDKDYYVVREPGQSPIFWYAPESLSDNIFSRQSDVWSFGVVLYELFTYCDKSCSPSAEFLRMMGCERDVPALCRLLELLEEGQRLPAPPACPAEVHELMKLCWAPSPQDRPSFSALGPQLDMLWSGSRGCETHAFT
T3 sequence (O60674 849-1132 limits assumed, change not shown): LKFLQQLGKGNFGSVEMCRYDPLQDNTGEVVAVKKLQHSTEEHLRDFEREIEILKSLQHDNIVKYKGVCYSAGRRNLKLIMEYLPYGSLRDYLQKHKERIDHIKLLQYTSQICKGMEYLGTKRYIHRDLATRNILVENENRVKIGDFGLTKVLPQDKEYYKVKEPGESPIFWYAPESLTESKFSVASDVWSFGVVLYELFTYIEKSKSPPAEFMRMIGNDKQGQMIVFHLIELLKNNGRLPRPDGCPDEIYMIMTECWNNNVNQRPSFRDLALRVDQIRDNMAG
T2 sequence (P23458 875-1154 limits assumed, change not shown): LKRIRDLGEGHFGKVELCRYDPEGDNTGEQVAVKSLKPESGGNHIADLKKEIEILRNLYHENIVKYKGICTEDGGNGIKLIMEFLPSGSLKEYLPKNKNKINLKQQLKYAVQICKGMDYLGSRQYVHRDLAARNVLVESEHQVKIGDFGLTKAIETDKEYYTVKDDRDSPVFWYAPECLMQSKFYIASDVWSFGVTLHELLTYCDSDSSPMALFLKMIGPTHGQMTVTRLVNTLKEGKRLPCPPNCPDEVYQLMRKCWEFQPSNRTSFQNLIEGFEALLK

Row | IC50 (TYK2 [1]) [nM] | IC50 (TYK2 [2]) [nM] | GI50 (JAK1) [nM] | GI50 (JAK2) [nM] | GI50 (JAK3) [nM] | SMILES
1 | 1.1 | 1.1 | > 1000 | > 1000 | > 1000 | [2H]C([2H])([2H])NC(=O)c1nnc(NC(=O)C2CC2)cc1Nc1nc(N)c(Cl)cc1[S@](C)(=N)=O [Example 29, (R)-4-((6-amino-5-chloro-3-(S-methylsulfoximino)pyridin-2-yl)amino)-6-(cyclopropylcarboxamido)-N-(methyl-d3)pyridazine-3-carboxamide]
2 | 0.6 | 0.6 | > 1000 | > 1000 | > 1000 | [2H]C([2H])([2H])NC(=O)c1nnc(NC(=O)C2CC2)cc1Nc1nc(N)c(Cl)cc1[S@@](C)(=O)=NC [Example 28]

— patent publication US20250179022A1, “COMPOUND USED AS TYK2 INHIBITOR, PREPARATION METHOD THEREFOR, AND PHARMACEUTICAL USE THEREOF” (SHANGHAI ZHIGEN PHARMACEUTICAL & TECHNOLOGY CO. LTD., priority 2022, published 2025)
